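Five compound concentrations were applied to cells in 96-well plates for 48 hours; endpoints were derived by simple linear interpolation of the resulting dose-response curve. GI50 is the concentration that inhibits growth by half.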 Activity calls are given as the source filed them. Cut-off read from the data, not from the text of the source: active = GI50 up to about 1.1 µM and inactive = higher.
Experiments:
Assay in all cases: NCI-60 cell line screen, 48 h
HCC 2998 = test system: HCC 2998
HCT-15 = test system: HCT-15
HL-60 = test system: HL-60
K562 = test system: K562
M14 = test system: M14
MOLT-4 = test system: MOLT-4
NCI-H23 = test system: NCI-H23
OVCAR-4 = test system: OVCAR-4
RPMI-8226 = test system: RPMI-8226
SF-539 = test system: SF-539
SK-MEL-28 = test system: SK-MEL-28
SK-MEL-5 = test system: SK-MEL-5
SN12C = test system: SN12C
SR = test system: SR
SW-620 = test system: SW-620
UACC-257 = test system: UACC-257
A498 = test system: A498
ACHN = test system: ACHN
OVCAR-3 = test system: OVCAR-3

| SMILES | GI50 (HCC 2998) | GI50 (HCT-15) | GI50 (HL-60) | GI50 (K562) | GI50 (M14) | GI50 (MOLT-4) | GI50 (NCI-H23) | GI50 (OVCAR-4) | GI50 (RPMI-8226) | GI50 (SF-539) | GI50 (SK-MEL-28) | GI50 (SK-MEL-5) | GI50 (SN12C) | GI50 (SR) | GI50 (SW-620) | GI50 (UACC-257) | GI50 (A498) | GI50 (ACHN) | GI50 (OVCAR-3) |
| --- | --- | --- | --- | --- | --- | --- | --- | --- | --- | --- | --- | --- | --- | --- | --- | --- | --- | --- | --- |
| Clc1ccc(/N=C/c2cc3cc(Br)ccc3nc2Cl)cc1 | 32.3 µM (inactive) | 14.2 µM | 9.82 µM (inactive) | 4.34 µM (inactive) | 14.4 µM (inactive) | 13.5 µM (inactive) | > 50 µM (inactive) | 5.12 µM (inactive) | 13.2 µM (inactive) | 21.4 µM (inactive) | 46.5 µM (inactive) | 6.59 µM (inactive) | > 50 µM (inactive) | 10.1 µM (inactive) | 14.2 µM (inactive) | 34.1 µM (inactive) | – | – | – |
| COc1ccc(C2CC(c3c(O)ccc4ccccc34)=NN2c2ccc([N+](=O)[O-])cc2[N+](=O)[O-])cc1OC (configuration not stated) | 28.5 µM (inactive) | 27 µM | – | 3.47 µM (inactive) | 32.7 µM (inactive) | 4.78 µM (inactive) | 6.82 µM (inactive) | 16.6 µM (inactive) | 3.87 µM (inactive) | 26.1 µM (inactive) | 34.2 µM (inactive) | 10.1 µM (inactive) | 29.8 µM (inactive) | – | 39.9 µM (inactive) | 22.4 µM (inactive) | 7.18 µM (inactive) | 18.5 µM (inactive) | 12.1 µM (inactive) |
| NS(=O)(=O)c1cc2c(cc1Cl)N=C(CCC(=O)O)NS2(=O)=O | – | > 100 µM | – | > 100 µM (inactive) | > 100 µM (inactive) | – | > 100 µM (inactive) | > 100 µM (inactive) | > 100 µM (inactive) | > 100 µM (inactive) | > 100 µM (inactive) | > 100 µM (inactive) | > 100 µM (inactive) | – | > 100 µM (inactive) | > 100 µM (inactive) | > 100 µM (inactive) | > 100 µM (inactive) | > 100 µM (inactive) |
| COC(=O)/C=C\COCC1C2CCC(=O)C21 (configuration not stated) | > 25 µM (inactive) | 9.57 µM | – | 8.28 µM (inactive) | 8.36 µM (inactive) | 6.07 µM (inactive) | > 25 µM (inactive) | > 25 µM (inactive) | 11 µM (inactive) | 7.16 µM (inactive) | > 25 µM (inactive) | 22.9 µM (inactive) | > 25 µM (inactive) | 8.3 µM (inactive) | 7.93 µM (inactive) | 10.4 µM (inactive) | – | 11.6 µM (inactive) | 8.41 µM (inactive) |
| COc1ccc(/C=C/C(=O)c2sc(N)nc2C)cc1 | > 100 µM (inactive) | > 100 µM | > 100 µM (inactive) | > 100 µM (inactive) | – | > 100 µM (inactive) | > 100 µM (inactive) | – | > 100 µM (inactive) | > 100 µM (inactive) | > 100 µM (inactive) | > 100 µM (inactive) | > 100 µM (inactive) | – | > 100 µM (inactive) | > 100 µM (inactive) | > 100 µM (inactive) | – | 41 µM (inactive) |
| O=c1oc(-c2ccc(O)c(O)c2)cc2cccc(O)c12 [THUNBERGINOL A] | 12.8 µM (inactive) | 4.99 µM | 17.1 µM (inactive) | 22.1 µM (inactive) | 19.5 µM (inactive) | 3.42 µM (inactive) | 16.1 µM (inactive) | 20.1 µM (inactive) | 10.5 µM (inactive) | 23.9 µM (inactive) | – | 9.4 µM (inactive) | 14.4 µM (inactive) | – | 21.1 µM (inactive) | 22.6 µM (inactive) | 19.9 µM (inactive) | 21.4 µM (inactive) | 10.5 µM (inactive) |
